Active and inactive are the calls of the source. No rule for the calls is given here.
target: Prostaglandin E2 receptor EP2 subtype (Homo sapiens) (UniProt P43116); test: EP2 receptor modulators, dose response, cell-based, human EP2, PGE2 EC50 shift (AID 1421); conditions: EP2-expressing cells, PGE2 EC50 shift by compound
Sequence (P43116 whole entry, looked up): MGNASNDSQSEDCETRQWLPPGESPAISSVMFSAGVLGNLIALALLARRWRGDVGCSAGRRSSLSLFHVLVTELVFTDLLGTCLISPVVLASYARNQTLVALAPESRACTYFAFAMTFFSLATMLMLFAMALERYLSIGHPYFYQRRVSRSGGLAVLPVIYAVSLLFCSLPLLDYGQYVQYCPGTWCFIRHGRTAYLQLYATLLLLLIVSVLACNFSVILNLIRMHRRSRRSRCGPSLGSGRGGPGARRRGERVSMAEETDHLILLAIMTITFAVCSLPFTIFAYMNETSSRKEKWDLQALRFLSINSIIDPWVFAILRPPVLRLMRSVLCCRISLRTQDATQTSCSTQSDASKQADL

| Compound | outcome |
| --- | --- |
| CCCSc1ncnc2sc(C)c(C)c12 | active |
| C=CCSc1nc2ccccc2n1S(=O)(=O)c1ccc(Cl)cc1 | active |
| Clc1ccc(COn2c(-c3ccccc3)nc3ccccc32)cc1 | active |
| Cc1noc(C)c1CSc1nc2ccccc2c(=O)n1-c1ccccc1 | active |
| Cc1ccccc1CN(C)CC(=O)Nc1ccccc1Oc1ccccc1 | active |
| CCOC(=O)C(C)Sc1nc(-c2ccccc2)nc2ccccc12 (stereo not drawn) | active |
| C(=N/n1c2ccccc2c2ccccc21)/c1ccco1 | active |
| CC(C)C(=O)c1cc2c(cc1NC(=O)c1ccccc1)OCCO2 | active |

same assay, conditions: EP2-expressing cells, PGE2 EC50 shift by compound; measured here: PGE2 EC50 at 6.7 uM compound

| Compound | PGE2 EC50 with compound |
| --- | --- |
| CCCSc1ncnc2sc(C)c(C)c12 | 0.89 nM |
| Cc1cccc(C(=O)c2cnc3ccccc3c2-c2ccccc2)c1 | 0.95 nM |
| C=CCSc1nc2ccccc2n1S(=O)(=O)c1ccc(C)cc1 | 0.95 nM |
| Cc1cc(SC(C)C(=O)O)nc2ccccc12 (stereo not drawn) | 1.18 nM |
| Clc1ccc(Cn2c(/C=C/c3ccco3)nc3ccccc32)cc1 | 1.38 nM |
| c1ccc(Cc2nc3ccccc3n2Cc2ccccc2)cc1 | 0.81 nM |
| CC[C@H](C)C(=O)O[C@H]1C[C@@H](C)C=C2C=C[C@H](C)[C@H](CC[C@@H]3C[C@@H](O)CC(=O)O3)[C@H]21 | 0.97 nM |
| CCCc1cc(=O)n2[nH]c(NCc3cccs3)nc2n1 | 2.54 nM |
| C=CCSc1ncnc2sc(C)c(C)c12 | 1.3 nM |
| CCOc1ccccc1C(=O)Nc1ccccc1-c1ccccc1 | 1.34 nM |
| CCn1c(=S)[nH]c2c(c1=O)C(C)(C)Cc1ccccc1-2 | 0.76 nM |
| CC(=O)N(c1cccc(Br)c1)C1C=CS(=O)(=O)C1 (stereo not drawn) | 0.98 nM |
| CCOC(=O)c1c(N)sc(-c2ccccc2)c1C | 2.56 nM |
| COC(=O)CSc1nc2c(c(C3CC=CCC3)c1C#N)CCC2 (stereo not drawn) | 1.26 nM |
| COC(=O)c1c(NC(=O)CSc2nnc(-c3ccco3)n2Cc2ccccc2)sc(C)c1C | 0.85 nM |
| C=CCSc1nc2ccccc2n1S(=O)(=O)c1ccc(Cl)cc1 | 0.85 nM |
| O=C(COc1ccc(Br)cc1)Nc1ccc(-c2nnc(-c3ccco3)o2)cc1 | 0.9 nM |
| Cn1c(=O)[nH]c(=O)c2c1nc(CN1CCN(c3cccc(Cl)c3)CC1)n2CCCc1ccccc1 | 1.19 nM |
| CC1=CC(C)(C)N2C(=O)C3(SCC(=O)N3c3ccc(F)cc3)c3cc(C)cc1c32 (stereo not drawn) | 1.12 nM |
| CCCCOc1ccccc1C1C(C(=O)OC)=C(C)N(C)C(C)=C1C(=O)OC | 0.69 nM |
| CCn1c2ccccc2c2cc(/C=N/n3c(C)nnc3C)ccc21 | 1.15 nM |
| Clc1ccc(COn2c(-c3ccccc3)nc3ccccc32)cc1 | 2.65 nM |
| CC(C)Cc1nc2sc3c(=O)[nH]cnc3c2c2c1CCC2 | 1.48 nM |
| COC(=O)c1cc2occc2n1Cc1cccc(C)c1 | 0.79 nM |
| O=C(O)c1oc(C(=O)O)c(C(=O)O)c1C(=O)O | 1.51 nM |
| CCOC(=O)c1sc2nc3c(SCC(=O)O)cc(C(=O)c4cc(F)ccc4O)cn3c(=O)c2c1C | 0.6 nM |
| COc1ccc2c(C)cc(SCC(=O)Nc3ncc(Cl)cc3Cl)nc2c1 | 1.52 nM |

| Compound | PGE2 EC50 with compound |
| --- | --- |
| O=C(CSc1nnc(Cc2ccccc2)n1Cc1ccco1)NC12CC3CC(CC(C3)C1)C2 | 1.73 nM |
| COc1cccc(OCC(=O)Nc2ccccc2-c2ccccc2)c1 | 1.17 nM |
| COc1ccc2c(COC(=O)c3n[nH]c4ccccc34)cc(=O)oc2c1 | 1.31 nM |
| OC1(c2ccc(Br)cc2)CN(c2ccccc2)C2=[N+]1CCS2 (stereo not drawn) | 1.17 nM |
| CCOC(=O)c1sc(NC(=O)CCN2CC(C)OC(C)C2)c(C(=O)OCC)c1C (stereo not drawn) | 1.11 nM |
| Cc1noc(C)c1CSc1nc2ccccc2c(=O)n1-c1ccccc1 | 1.3 nM |
| Cc1ccc(C(=O)c2cnc3ccccc3c2-c2ccccc2)cc1 | 0.64 nM |
| COc1ccc(C(=O)N2N=C(c3ccccc3)CC2(O)C(F)(F)F)cc1 (stereo not drawn) | 2.7 nM |
| CC(=O)NC(c1ccccc1)c1cccnc1 (stereo not drawn) | 1.03 nM |
| Cc1ccc(/C=N/N(Cc2ccccc2)c2ccccc2)o1 | 0.92 nM |
| Cc1cccc(CSc2ncnc3ccccc23)c1 | 0.87 nM |
| CN(Cc1c(C(=O)N2CCc3ccccc3C2)nc2ccc(Cl)cn12)C(C1CC1)C1CC1 | 0.9 nM |
| Cc1ccccc1CN(C)CC(=O)Nc1ccccc1Oc1ccccc1 | 1.12 nM |
| CCCCc1nc2sc3c(SCC(=O)NCc4ccco4)ncnc3c2c2c1CCC2 | 2.5 nM |
| Cc1nc(N2N=C(c3ccc(Cl)cc3)CC2c2ccco2)sc1C(=O)N(C)C (stereo not drawn) | 2.73 nM |
| Cn1c(=O)c2c(nc(SCC(=O)c3cccs3)n2Cc2ccc(F)cc2)n(C)c1=O | 0.99 nM |
| CCOC(=O)C(C)Sc1nc(-c2ccccc2)nc2ccccc12 (stereo not drawn) | 0.92 nM |
| Cc1nnc(SCC(=O)N2c3ccccc3C(C)(c3ccccc3)CC2(C)C)s1 (stereo not drawn) | 0.85 nM |
| O=C(Nc1ccccc1N1CCCCC1)c1cccc([N+](=O)[O-])c1 | 0.9 nM |
| COc1ccc(Oc2cc(C(F)(F)F)nc(N(C)C)n2)cc1 | 0.63 nM |
| CC(C)NC(=S)NN=C1CCCCCCCCCCC1 | 0.97 nM |
| C(=N/n1c2ccccc2c2ccccc21)/c1ccco1 | 1.08 nM |
| CC(C)=CCC/C(C)=C/CC/C(C)=C/CSc1ccccc1C(=O)O | 0.69 nM |
| CC(=O)OCC(=O)[C@@]12OC(C)(C)O[C@@H]1C[C@H]1[C@H]3CC=C4C[C@@H](O)CC[C@]4(C)[C@@H]3CC[C@@]12C | 0.97 nM |
| O=C(O)c1ccc(N2C(=O)/C(=C/C=C/c3ccccc3)SC2=S)cc1 | 2.89 nM |
| NCCc1c(-c2ccccc2)n(-c2ccccc2)c2ccccc12 | 1.25 nM |
| O=C(CC(Sc1ccccc1)c1cccs1)c1ccco1 (stereo not drawn) | 0.88 nM |

| Compound | PGE2 EC50 with compound |
| --- | --- |
| CC(C)C(=O)c1cc2c(cc1NC(=O)c1ccccc1)OCCO2 | 0.88 nM |
| CCOC(=O)Cc1csc(NC(NC(=O)CC)(C(F)(F)F)C(F)(F)F)n1 | 1.03 nM |
| CC1Cc2ccccc2N1C(=O)CSc1nnc(Cc2ccccc2)n1CCc1ccccc1 (stereo not drawn) | 1.14 nM |
| Cc1ccc(Cn2ccc(=O)c(OCc3c(Cl)cccc3Cl)c2C)cc1 | 1.18 nM |
| CN(C)c1nc(-c2ccccc2)c2cnn(Cc3ccccc3)c2n1 | 1.12 nM |
| Cc1nnc(SCC(=O)NC2CCCCC2)n1C1CCCCC1 | 2.7 nM |
| C=C(C)Cn1c(C)cc(C)c(S(=O)(=O)c2cccc(C)c2)c1=O | 1.28 nM |
| CCOC(=O)c1c(NC(=O)c2ccoc2C)sc(C(=O)N(C)C)c1C | 0.8 nM |
| Cc1cc(C)n(-c2nc(C)nc3c2cnn3-c2ccccc2)n1 | 1.43 nM |
| Cc1cc(C)c(S(=O)(=O)c2ccccc2)c(OC(=O)c2c(Cl)cc(Cl)cc2Cl)n1 | 1.27 nM |
| Cc1sc2ncnc(Sc3ccccc3C(=O)O)c2c1C | 2.7 nM |
| O=C(O)c1nc2nc(Cl)c(Cl)nc2[nH]1 | 1.28 nM |
| CCOc1ccccc1NC(=O)c1c(Br)cnn1C | 1.08 nM |
| CCOC(=O)c1c(NC(=O)c2c(Br)cnn2CC)sc(C)c1C | 0.9 nM |
| COc1cc(C)c(C(=O)Oc2cc(C)c(C(=O)O)c(O)c2C)c(OC)c1C | 0.98 nM |
| O=c1cc(N2CCCCC2)c(-c2ccccc2)nn1Cc1cccc(Cl)c1 | 0.32 nM |
| CCSc1ccccc1C(=O)Nc1ccc([N+](=O)[O-])cc1OC | 1.06 nM |
| C=CCc1cc(C=C2C(=O)N(C)C(=O)N(C)C2=O)cc(OCC)c1OCc1ccccc1 | 0.94 nM |
| COc1cccc2[nH]c3c(N4CCC(C)CC4)ncnc3c12 | 2.38 nM |
| CC1(C)Cc2nc3nc(SCC(=O)Nc4ccccc4)nc(N)c3cc2CO1 | 1.4 nM |
| O=[N+]([O-])c1ccc(Cl)c2c1C1C=CCC1C(c1ccccn1)N2 (stereo not drawn) | 0.69 nM |
| COc1ccc(CSC2=C(C#N)C(=O)NC3(CCCCC3)S2)cc1 | 1.3 nM |
| CCn1ncc(Cl)c1C(=O)Nc1cc(Cl)ccc1Cl | 0.7 nM |
| CN(CC(=O)Nc1ccccc1-c1ccccc1)Cc1ccccc1Cl | 0.95 nM |
| Clc1ccccc1Cn1c(/C=C/c2ccco2)nc2ccccc21 | 0.99 nM |
| Cc1ccc(C)n1-c1ccc(N(C)C)cc1 | 0.75 nM |
| COc1ccc(-c2cc(C(F)(F)F)nc(NC3CCCC3)n2)cc1OC | 0.7 nM |

| Compound | PGE2 EC50 with compound |
| --- | --- |
| CC(Cc1ccccc1)NC(=O)C1(c2ccccc2)CCOCC1 (stereo not drawn) | 1.2 nM |
| FC(F)(F)c1nnc(-c2ccccc2)nc1Sc1ccccc1 | 0.91 nM |
| COC(=O)c1ccc(Oc2cc(C)nc(NCc3ccccc3)n2)cc1 | 0.34 nM |
| Cn1cc(C2=C(c3ccc(Cl)cc3Cl)C(=O)NC2=O)c2ccccc21 | 0.68 nM |
| Cc1cccc(-c2csc(N)c2C(=O)OC(C)C)c1 | 0.97 nM |
| CCSc1ncnc2sc3c(c12)CCC3 | 0.94 nM |
| Cc1ccc(C2CC2c2n[nH]c(=S)n2-c2ccc(C)cc2)cc1 (stereo not drawn) | 1.12 nM |
| CCOP(=O)(c1ccccc1)c1nc(-c2ccccc2C)oc1N1CCCCC1 (stereo not drawn) | 0.69 nM |
| O=C(c1ccco1)N1N=C(c2ccc(Br)cc2)CC1(O)C(F)(F)F (stereo not drawn) | 0.84 nM |
| COc1ccc(-c2nc(NC(C)=O)sc2-c2ccc(OC)cc2)cc1 | 0.95 nM |
| Cc1ccc(-c2csc(Nc3ccc(C(=O)O)cc3)[n+]2Cc2ccccc2)cc1 | 0.77 nM |
| COC(=O)c1cc2ccsc2n1Cc1cccc(F)c1 | 0.95 nM |
| COC(=O)c1c(NC(NC(=O)C(C)C)C(Cl)(Cl)Cl)sc2c1CCCC2 (stereo not drawn) | 1 nM |
| CCOC(=O)C(Cc1ccccc1)(NC(C)=O)C(=O)OCC | 1.39 nM |
| CSc1nnc(CSCc2ccc(Cl)cc2Cl)n1-c1ccccc1 | 2.63 nM |
| COc1cnc(N(C)C)nc1Sc1cccc(Cl)c1 | 1.13 nM |
| CCOC(=O)c1c(NC(=O)COC(=O)Cn2cnc3ccccc32)sc2c1CCC(C)C2 (stereo not drawn) | 0.79 nM |
| Cc1nccc2[nH]c(=O)c(C(=O)NC3CCCCC3C)cc12 (stereo not drawn) | 1.44 nM |
| O=C1N2c3ccccc3CCc3cccc(c32)C1(O)C(F)(F)F (stereo not drawn) | 0.81 nM |
| CSc1nc(-c2ccc(Cl)cc2)nn1S(=O)(=O)c1ccccc1 | 1.03 nM |
| CCCCCCn1c(COc2ccccc2F)nnc1SCC(=O)N1c2ccccc2NC(=O)C1(C)C | 0.93 nM |
| Cc1ccnc(NS(=O)(=O)c2cccs2)c1 | 1.8 nM |
| COC(=O)CSc1nc(-c2ccccc2)nc2ccccc12 | 1.02 nM |
| CCOC(=O)C(CC)Sc1ncnc2c1nnn2-c1ccc(F)cc1 (stereo not drawn) | 0.33 nM |
